Measured values taken from PubChem BioAssay (NCI).
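Assay format: 96-well plates, 48-hour exposure. Abbreviation: GI50, concentration required for 50% inhibition of growth. Definition used: TGI = concentration required for complete inhibition of growth.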

Legend:
Assay in all cases: NCI anticancer screen, dose series, 48 h
KM12 colon = system: KM12 colon
IGROV1 ovarian = system: IGROV1 ovarian
SK-OV-3 ovarian = system: SK-OV-3 ovarian
SK-MEL-28 melanoma = system: SK-MEL-28 melanoma
DU-145 prostate = system: DU-145 prostate
SF-268 CNS = system: SF-268 CNS
MDA-N = system: MDA-N
CCRF-CEM leukemia = system: CCRF-CEM leukemia
786-0 renal = system: 786-0 renal
RXF 393 renal = system: RXF 393 renal

## COc1ccc(N=C2C(=Nc3ccc(OC)cc3)N(c3ccc(N(C)C)cc3)C(=S)N2c2ccc(OC)cc2)cc1
KM12 colon
  TGI: > 100 µM
IGROV1 ovarian
  TGI: > 100 µM
SK-OV-3 ovarian
  TGI: > 100 µM
SK-MEL-28 melanoma
  TGI: > 100 µM
DU-145 prostate
  TGI: > 100 µM
SF-268 CNS
  TGI: > 100 µM
MDA-N
  TGI: > 100 µM
CCRF-CEM leukemia
  TGI: > 100 µM
786-0 renal
  TGI: > 100 µM

## COC1=C2C=[N+](C)C3C(=C2C=CC1OC)Cc1cc2c(cc13)OCO2 (configuration not stated)
KM12 colon
  TGI: 10.4 µM
SK-OV-3 ovarian
  TGI: 28.3 µM
SK-MEL-28 melanoma
  TGI: 47.4 µM
DU-145 prostate
  TGI: 27.5 µM
SF-268 CNS
  TGI: 20.3 µM
MDA-N
  TGI: 23.6 µM
CCRF-CEM leukemia
  TGI: > 100 µM
786-0 renal
  TGI: 29.6 µM

## CCOC(=O)c1[nH]c2cccc3c2c1CC[C@H](NC(=O)C(F)(F)F)C3=O
KM12 colon
  TGI: > 100 µM
IGROV1 ovarian
  TGI: > 100 µM
SK-MEL-28 melanoma
  TGI: 0.0458 µM
DU-145 prostate
  TGI: > 100 µM
SF-268 CNS
  TGI: > 100 µM
MDA-N
  TGI: > 100 µM
CCRF-CEM leukemia
  TGI: > 100 µM
786-0 renal
  TGI: > 100 µM

## CCCCCN(CCCCC)CC(C)(C)C(O)c1ccc(OC)c2ccccc12 (configuration not stated)
KM12 colon
  TGI: 25.4 µM
IGROV1 ovarian
  TGI: 14.3 µM
RXF 393 renal
  TGI: 24.1 µM
SK-MEL-28 melanoma
  TGI: 24.5 µM
DU-145 prostate
  TGI: 28.2 µM
SF-268 CNS
  TGI: 31.5 µM
CCRF-CEM leukemia
  TGI: > 100 µM
786-0 renal
  TGI: 35.7 µM

## Cn1ccnc1CCc1ccc(Cl)c(Cl)c1
KM12 colon
  TGI: > 100 µM
IGROV1 ovarian
  TGI: > 100 µM
RXF 393 renal
  TGI: > 100 µM
SK-OV-3 ovarian
  TGI: > 100 µM
SK-MEL-28 melanoma
  TGI: > 100 µM
SF-268 CNS
  TGI: > 100 µM
CCRF-CEM leukemia
  TGI: > 100 µM
786-0 renal
  TGI: > 100 µM

## O=C(O)CNC(=O)c1ccc2cc(C(=O)N3CC(CCl)c4ccc([N+](=O)[O-])cc43)[nH]c2c1 (configuration not stated)
KM12 colon
  TGI: > 100 µM
IGROV1 ovarian
  TGI: > 100 µM
RXF 393 renal
  TGI: > 100 µM
SK-OV-3 ovarian
  TGI: > 100 µM
DU-145 prostate
  TGI: > 100 µM
SF-268 CNS
  TGI: > 100 µM
MDA-N
  TGI: > 100 µM
CCRF-CEM leukemia
  TGI: > 100 µM
786-0 renal
  TGI: > 100 µM

## CC12CCC(C(=Nc3cc(C(F)(F)F)cc(C(F)(F)F)c3)C1=O)C2(C)C (configuration not stated)
KM12 colon
  TGI: 91.7 µM
IGROV1 ovarian
  TGI: 76.1 µM
RXF 393 renal
  TGI: 37.3 µM
SK-OV-3 ovarian
  TGI: > 100 µM
SK-MEL-28 melanoma
  TGI: > 100 µM
DU-145 prostate
  TGI: > 100 µM
SF-268 CNS
  TGI: 84.5 µM
CCRF-CEM leukemia
  TGI: > 100 µM
786-0 renal
  TGI: > 100 µM

## COC([C@@H](OC(=O)c1ccccc1)[C@H](OC(=O)c1ccccc1)C(O)COC(=O)c1ccccc1)n1cc(C)c(=O)[nH]c1=O (some centres not stated)
IGROV1 ovarian
  TGI: > 100 µM
RXF 393 renal
  TGI: 43.1 µM
SK-OV-3 ovarian
  TGI: > 100 µM
SK-MEL-28 melanoma
  TGI: > 100 µM
DU-145 prostate
  TGI: > 100 µM
SF-268 CNS
  TGI: > 100 µM
MDA-N
  TGI: > 100 µM
786-0 renal
  TGI: 77 µM

## CCCCCCCCCCCCCCCCCC(=O)Nc1ccn(C2CCC(COP(=O)(O)O)O2)c(=O)n1 (configuration not stated)
KM12 colon
  TGI: > 100 µM
IGROV1 ovarian
  TGI: > 100 µM
RXF 393 renal
  TGI: > 100 µM
SK-OV-3 ovarian
  TGI: > 100 µM
SK-MEL-28 melanoma
  TGI: > 100 µM
DU-145 prostate
  TGI: > 100 µM
SF-268 CNS
  TGI: > 100 µM
CCRF-CEM leukemia
  TGI: > 100 µM
786-0 renal
  TGI: > 100 µM

## O=[N+]([O-])c1ccc([N+]2=NC(c3ccccc3)=NN(c3ccccc3)C2)cc1
KM12 colon
  TGI: > 100 µM
IGROV1 ovarian
  TGI: > 100 µM
RXF 393 renal
  TGI: > 100 µM
SK-OV-3 ovarian
  TGI: > 100 µM
SK-MEL-28 melanoma
  TGI: > 100 µM
SF-268 CNS
  TGI: > 100 µM
CCRF-CEM leukemia
  TGI: > 100 µM
786-0 renal
  TGI: > 100 µM

## Cc1ccc(S(=O)(=O)N/N=C2/CCC(C(C)(C)C)CC2Br)cc1 (configuration not stated)
KM12 colon
  TGI: 47 µM
IGROV1 ovarian
  TGI: > 100 µM
SK-OV-3 ovarian
  TGI: > 100 µM
SK-MEL-28 melanoma
  TGI: 54.5 µM
DU-145 prostate
  TGI: > 100 µM
SF-268 CNS
  TGI: > 100 µM
MDA-N
  TGI: > 100 µM
CCRF-CEM leukemia
  TGI: 64.2 µM
786-0 renal
  TGI: 99.4 µM

## CN(Cc1cnc2nc(N)nc(N)c2n1)c1ccc(C(=O)NC(CCC(=O)NC(CC(P(=O)(O)O)P(=O)(O)O)C(=O)O)C(=O)O)cc1 (configuration not stated)
IGROV1 ovarian
  TGI: > 100 µM
RXF 393 renal
  TGI: > 100 µM
SK-OV-3 ovarian
  TGI: > 100 µM
SK-MEL-28 melanoma
  TGI: > 100 µM
DU-145 prostate
  TGI: > 100 µM
SF-268 CNS
  TGI: > 100 µM
MDA-N
  TGI: > 100 µM
786-0 renal
  TGI: > 100 µM

## NC(CC(O)(c1ccccc1)c1ccccc1)c1ccccc1S (configuration not stated)
KM12 colon
  TGI: 25.5 µM
RXF 393 renal
  TGI: 31 µM
SK-OV-3 ovarian
  TGI: 37.6 µM
SK-MEL-28 melanoma
  TGI: 31.5 µM
SF-268 CNS
  TGI: 24.8 µM
MDA-N
  TGI: 30.4 µM
CCRF-CEM leukemia
  TGI: 40.7 µM
786-0 renal
  TGI: 29.4 µM

## Clc1ccc(C2CC(c3cccc(Nc4ccncc4)c3)=NN2c2cc(Cl)cc(Cl)c2)cc1 (configuration not stated)
KM12 colon
  GI50: 1.79 µM
  TGI: 3.38 µM
IGROV1 ovarian
  GI50: 1.71 µM
  TGI: 3.32 µM
SK-OV-3 ovarian
  GI50: 1.89 µM
  TGI: 3.83 µM
SK-MEL-28 melanoma
  GI50: 1.76 µM
  TGI: 3.39 µM
DU-145 prostate
  GI50: 1.85 µM
  TGI: 3.39 µM
SF-268 CNS
  GI50: 1.78 µM
  TGI: 3.59 µM
CCRF-CEM leukemia
  GI50: 3.52 µM
  TGI: > 100 µM

## CC(C)(C)OC(=O)N1[C@@H]2Cc3ccc(N)cc3[C@@]1(C)c1ccccc12
KM12 colon
  TGI: > 100 µM
IGROV1 ovarian
  TGI: > 100 µM
RXF 393 renal
  TGI: 31.1 µM
SK-OV-3 ovarian
  TGI: > 100 µM
DU-145 prostate
  TGI: > 100 µM
SF-268 CNS
  TGI: > 100 µM
MDA-N
  TGI: 45.3 µM
CCRF-CEM leukemia
  TGI: 64.9 µM
786-0 renal
  TGI: 36.2 µM

## COc1ccc(CNc2nc3cc(C(F)(F)F)ccc3nc2-c2ccccc2)cc1OC
KM12 colon
  TGI: > 100 µM
IGROV1 ovarian
  TGI: > 100 µM
RXF 393 renal
  TGI: > 100 µM
SK-OV-3 ovarian
  TGI: > 100 µM
DU-145 prostate
  TGI: > 100 µM
SF-268 CNS
  TGI: > 100 µM
MDA-N
  TGI: > 100 µM
CCRF-CEM leukemia
  TGI: > 100 µM
786-0 renal
  TGI: > 100 µM

## COP(=O)(O)C(N)Cc1c[nH]c2ccccc12 (configuration not stated)
IGROV1 ovarian
  TGI: > 100 µM
SK-OV-3 ovarian
  TGI: > 100 µM
SK-MEL-28 melanoma
  TGI: > 100 µM
DU-145 prostate
  TGI: > 100 µM
MDA-N
  TGI: > 100 µM
CCRF-CEM leukemia
  TGI: > 100 µM
